Test results from PubChem BioAssay AID1963960 (Molecular Pharmacology Branch, DTP, NCI, 2024).

Tested on: MDA-MB-468 spheroids with HUVEC/MSC, viability
Experiment: Anticancer human tumor MDA-MB-468 cell line growth inhibition [PI3K];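 also: spheroids exposed to agents for seven days before readout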;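 as to viability, T/C: 100% = DMSO vehicle control viability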
Conditions: for IC50: curve of first compound; for viability, T/C: stronger effect = lower value
Method in brief: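 Spheroid viability read-out. Co-cultures contained the tumor line plus HUVEC and human MSCs. Each agent was paired with a PI3K inhibitor (inavolisib, alpelisib, duvelisib, copanlisib) across half-log dilutions starting at clinical Cmax, or at 10 microM when Cmax was unknown.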

[1] = second compound 0.0316 µM, first compound 0.0316 µM
[2] = second compound 0.0316 µM, first compound 0.1 µM
[3] = second compound 0.1 µM, first compound 0.0316 µM
[4] = second compound 0.1 µM, first compound 0.1 µM
[5] = second compound 0.316 µM, first compound 0.0316 µM
[6] = second compound 0.316 µM, first compound 0.1 µM
[7] = second compound 1 µM, first compound 0.0316 µM
[8] = second compound 1 µM, first compound 0.1 µM

Cn1ncc(Cl)c1-c1cc(C(=O)NC(CN)Cc2cccc(F)c2)sc1Cl (centres undefined) + Cc1nc(NC(=O)N2CCCC2C(N)=O)sc1-c1ccnc(C(C)(C)C(F)(F)F)c1
IC50 (second compound 0.0316 µM): 327 nM
IC50 (second compound 0.1 µM): 272 nM
IC50 (second compound 0.316 µM): 289 nM
IC50 (second compound 1 µM): 221 nM
IC50 (second compound 3.16 µM): 89.5 nM
IC50 (second compound 10 µM): < 31.6 nM
viability, T/C [1]: 84.6%
viability, T/C [2]: 78.8%
viability, T/C (second compound 0.0316 µM, first compound 0.316 µM): 37.8%
viability, T/C (second compound 0.0316 µM, first compound 1 µM): 33.1%
viability, T/C (second compound 0.0316 µM, first compound 3.16 µM): 29.8%
viability, T/C (second compound 0.0316 µM, first compound 10 µM): 0.69%
viability, T/C [3]: 78.1%
viability, T/C [4]: 62.4%
viability, T/C (second compound 0.1 µM, first compound 0.316 µM): 41.2%
viability, T/C (second compound 0.1 µM, first compound 1 µM): 36%
viability, T/C (second compound 0.1 µM, first compound 3.16 µM): 27.5%
viability, T/C (second compound 0.1 µM, first compound 10 µM): 1.98%
viability, T/C [5]: 80.2%
viability, T/C [6]: 76.9%
viability, T/C (second compound 0.316 µM, first compound 0.316 µM): 40.1%
viability, T/C (second compound 0.316 µM, first compound 1 µM): 30.1%
viability, T/C (second compound 0.316 µM, first compound 3.16 µM): 19.7%
viability, T/C (second compound 0.316 µM, first compound 10 µM): 3.34%
viability, T/C [7]: 91.3%
viability, T/C [8]: 68%
viability, T/C (second compound 1 µM, first compound 0.316 µM): 39.3%
viability, T/C (second compound 1 µM, first compound 1 µM): 26.1%
viability, T/C (second compound 1 µM, first compound 3.16 µM): 19.3%
viability, T/C (second compound 1 µM, first compound 10 µM): 4.09%
viability, T/C (second compound 3.16 µM, first compound 0.0316 µM): 66.7%
viability, T/C (second compound 3.16 µM, first compound 0.1 µM): 43.6%
viability, T/C (second compound 3.16 µM, first compound 0.316 µM): 37.4%
viability, T/C (second compound 3.16 µM, first compound 1 µM): 20.8%
viability, T/C (second compound 3.16 µM, first compound 3.16 µM): 14.1%
viability, T/C (second compound 3.16 µM, first compound 10 µM): 2.32%
viability, T/C (second compound 10 µM, first compound 0.0316 µM): 38.3%
viability, T/C (second compound 10 µM, first compound 0.1 µM): 20.8%
viability, T/C (second compound 10 µM, first compound 0.316 µM): 20.6%
viability, T/C (second compound 10 µM, first compound 1 µM): 14.1%
viability, T/C (second compound 10 µM, first compound 3.16 µM): 7.72%
viability, T/C (second compound 10 µM, first compound 10 µM): 0.4%

CC(=O)c1c(C)c2cnc(Nc3ccc(N4CCNCC4)cn3)nc2n(C2CCCC2)c1=O + COc1c(OCCCN2CCOCC2)ccc2c3n(c(=NC(=O)c4cnc(N)nc4)nc12)CCN3
IC50 (second compound 0.00316 µM): > 100 nM
IC50 (second compound 0.01 µM): > 100 nM
IC50 (second compound 0.0316 µM): > 100 nM
IC50 (second compound 0.1 µM): > 100 nM
IC50 (second compound 0.316 µM): < 0.316 nM
IC50 (second compound 1 µM): < 0.316 nM
viability, T/C (second compound 0.00316 µM, first compound 0.000316 µM): 105%
viability, T/C (second compound 0.00316 µM, first compound 0.001 µM): 92.6%
viability, T/C (second compound 0.00316 µM, first compound 0.00316 µM): 92.5%
viability, T/C (second compound 0.00316 µM, first compound 0.01 µM): 99.7%
viability, T/C (second compound 0.00316 µM, first compound 0.0316 µM): 90.1%
viability, T/C (second compound 0.00316 µM, first compound 0.1 µM): 91.5%
viability, T/C (second compound 0.01 µM, first compound 0.000316 µM): 85.7%
viability, T/C (second compound 0.01 µM, first compound 0.001 µM): 84%
viability, T/C (second compound 0.01 µM, first compound 0.00316 µM): 81.2%
viability, T/C (second compound 0.01 µM, first compound 0.01 µM): 86.2%
viability, T/C (second compound 0.01 µM, first compound 0.0316 µM): 86.8%
viability, T/C (second compound 0.01 µM, first compound 0.1 µM): 110%
viability, T/C (second compound 0.0316 µM, first compound 0.000316 µM): 64.1%
viability, T/C (second compound 0.0316 µM, first compound 0.001 µM): 67.5%
viability, T/C (second compound 0.0316 µM, first compound 0.00316 µM): 72.2%
viability, T/C (second compound 0.0316 µM, first compound 0.01 µM): 79.8%
viability, T/C [1]: 83.2%
viability, T/C [2]: 86.4%
viability, T/C (second compound 0.1 µM, first compound 0.000316 µM): 59.5%
viability, T/C (second compound 0.1 µM, first compound 0.001 µM): 62.8%
viability, T/C (second compound 0.1 µM, first compound 0.00316 µM): 58.8%
viability, T/C (second compound 0.1 µM, first compound 0.01 µM): 61.5%
viability, T/C [3]: 64.1%
viability, T/C [4]: 53.2%
viability, T/C (second compound 0.316 µM, first compound 0.000316 µM): 26.6%
viability, T/C (second compound 0.316 µM, first compound 0.001 µM): 25.5%
viability, T/C (second compound 0.316 µM, first compound 0.00316 µM): 27.1%
viability, T/C (second compound 0.316 µM, first compound 0.01 µM): 26.3%
viability, T/C [5]: 27.1%
viability, T/C [6]: 27.9%
viability, T/C (second compound 1 µM, first compound 0.000316 µM): 3.5%
viability, T/C (second compound 1 µM, first compound 0.001 µM): 3.63%
viability, T/C (second compound 1 µM, first compound 0.00316 µM): 2.3%
viability, T/C (second compound 1 µM, first compound 0.01 µM): 3.4%
viability, T/C [7]: 2.94%
viability, T/C [8]: 2.61%
